According to US20230203029A1 (priority 2020, published 2023):
Where two headings read alike, the source gives them in different places.

Columns and labels:
[1] = target: T1, Ba/F3 Pro B-cell line expressing TEL-human MERTK fusion domain (Homo sapiens, UniProt Q12866); format: cell-based
T1 sequence (Q12866 587-858 limits assumed): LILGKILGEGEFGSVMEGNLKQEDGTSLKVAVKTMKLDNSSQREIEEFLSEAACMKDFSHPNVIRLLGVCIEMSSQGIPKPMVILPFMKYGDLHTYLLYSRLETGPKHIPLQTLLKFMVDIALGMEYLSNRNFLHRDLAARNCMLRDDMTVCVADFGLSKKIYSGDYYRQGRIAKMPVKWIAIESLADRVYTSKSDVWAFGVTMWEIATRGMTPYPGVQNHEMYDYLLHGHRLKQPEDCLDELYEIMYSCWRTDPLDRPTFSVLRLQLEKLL
Procedure, shortened: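 Ba/F3 cells dependent on BCR-AXL or TEL-MERTK fusion kinase (IL3-free; IL3 only for control lines) treated with compound 48 h at 37 °C, 0.25% DMSO. Viability by CellTiter-Glo luminescence; IC50 for half-maximal inhibition of survival from 4-parameter variable-slope fit.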

[2] = target: T2, recombinant human MERTK expressed in live cells (HEK 293, MERTK-Nanoluc fusion vector) (Homo sapiens, UniProt Q12866); experiment: Assay 2 MERTK cellular target engagement (NanoBRET TE) assay; format: cell-based
T2 construct: host or cells: HEK 293
T2 sequence (Q12866 21-999): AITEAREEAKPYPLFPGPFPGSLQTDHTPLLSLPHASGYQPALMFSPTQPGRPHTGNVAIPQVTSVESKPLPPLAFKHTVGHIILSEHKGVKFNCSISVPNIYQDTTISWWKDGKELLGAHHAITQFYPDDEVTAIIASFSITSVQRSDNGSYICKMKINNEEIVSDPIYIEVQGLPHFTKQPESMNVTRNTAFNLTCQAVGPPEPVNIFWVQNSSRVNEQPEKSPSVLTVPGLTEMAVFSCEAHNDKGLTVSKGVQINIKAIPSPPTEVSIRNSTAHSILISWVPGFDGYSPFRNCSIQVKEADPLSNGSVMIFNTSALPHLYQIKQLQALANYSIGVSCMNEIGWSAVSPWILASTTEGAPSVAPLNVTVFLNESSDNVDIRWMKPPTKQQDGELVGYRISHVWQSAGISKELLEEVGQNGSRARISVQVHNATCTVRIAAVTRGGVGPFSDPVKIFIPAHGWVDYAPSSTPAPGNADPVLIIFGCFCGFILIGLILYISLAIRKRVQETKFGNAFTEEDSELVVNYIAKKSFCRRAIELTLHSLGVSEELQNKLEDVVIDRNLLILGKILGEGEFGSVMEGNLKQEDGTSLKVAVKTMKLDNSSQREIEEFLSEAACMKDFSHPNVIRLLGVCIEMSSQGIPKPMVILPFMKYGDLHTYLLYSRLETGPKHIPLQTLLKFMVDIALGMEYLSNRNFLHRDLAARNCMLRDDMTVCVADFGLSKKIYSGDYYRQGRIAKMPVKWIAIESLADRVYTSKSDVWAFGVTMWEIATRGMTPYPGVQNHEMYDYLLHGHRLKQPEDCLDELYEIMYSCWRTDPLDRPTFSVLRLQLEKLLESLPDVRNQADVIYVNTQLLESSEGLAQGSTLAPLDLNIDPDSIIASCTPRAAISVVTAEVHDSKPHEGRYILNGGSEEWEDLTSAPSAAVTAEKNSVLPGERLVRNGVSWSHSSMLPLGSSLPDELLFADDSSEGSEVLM

[3] = target: T3, human MERTK cytoplasmic domain (Homo sapiens, UniProt Q12866); experiment: biochemical
T3 construct: human MERTK cytoplasmic domain (Carna Biosciences 08-108); purchased Carna Biosciences 08-108
Description: Assay 1a—MERTK HTRF KinEASE-TK Assay
The enzymatic reaction was carried out for 30 min at room temperature. 10 μL TK Antibody-Cryptate/Streptavidin-XL665 (Cisbio 610SAXLG) was then added for 60 min, including EDTA containing detection buffer (Cisbio 62SDBRDF) to stop the reaction.

[4] = cell survival, 48 h, CellTiter-Glo; read-out: TEL-MERTK Ba/F3 IC50
[5] = HEK 293 cells, tracer K9, 2 h at 37° C., read-out: Assay 2 Cell TE MER IC50
[6] = 30 uM ATP, read-out: Assay 1a Mer IC50 30 uM ATP

| IC50 [2, 5] [nM] | IC50 [3, 6] [nM] | SMILES | IC50 [1, 4] [nM] | IC50 ([1]; read-out: TEL-MERTK Ba/F3 IC50; cell survival, 48 h, CellTiter-Glo) [nM] | IC50 [2] [nM] | IC50 [3] [nM] |
| --- | --- | --- | --- | --- | --- | --- |
| 6.7 | 1 | CC(C)n1cc(C(=O)Nc2ccc(Oc3ccnc4cnc(N5CCNCC5)cc34)cc2)c(=O)c(-c2ccc(F)cc2)c1 [Example 13, 5-(4-Fluorophenyl)-1-isopropyl-4-oxo-N-[4-[(6-piperazin-1-yl-1,7-naphthyridin-4-yl)oxy]phenyl]pyridine-3-carboxamide] | 31 |  |  |  |
|  | 3 | O=C(Nc1ccc(Oc2ccnc3cnc(N4CCN(C5COC5)CC4)cc23)cn1)c1ccnn(-c2ccc(F)cc2)c1=O [Example 20, 2-(4-fluorophenyl)-N-[5-[[6-[4-(oxetan-3-yl)piperazin-1-yl]-1,7-naphthyridin-4-yl]oxy]-2-pyridyl]-3-oxo-pyridazine-4-carboxamide] | 20 |  |  |  |
| 75.9 | 14 | C[C@H](CO)n1cc(C(=O)Nc2ccc(Oc3ccnc4cnc(C(=O)NC5CCN(C)CC5)cc34)cc2)c(=O)n(-c2ccc(F)cc2)c1=O [Example 14, 4-[4-[[3-(4-Fluorophenyl)-2,4-dioxo-1-[(1R)-2-hydroxy-1-methyl-ethyl]pyrimidine-5-carbonyl]amino]phenoxy]-N-(1-methyl-4-piperidyl)-1,7-naphthyridine-6-carboxamide] | 80 |  |  |  |
| 41.4 | 3 | CN1CCC(NC(=O)c2cc3c(Oc4ccc(NC(=O)c5cn(C)cc(-c6ccc(F)cc6)c5=O)cc4)ccnc3cn2)CC1 [Example 37, 4-[4-[[5-(4-fluorophenyl)-1-methyl-4-oxo-pyridine-3-carbonyl]amino]phenoxy]-N-(1-methyl-4-piperidyl)-1,7-naphthyridine-6-carboxamide] | 50 |  |  |  |
| 18.3 | 20 | O=C(Nc1ccc(Oc2ccnc3cnc(N4CCNCC4)cc23)cc1)c1cccn(-c2ccc(F)cc2)c1=O [Example 12.2, 1-(4-fluorophenyl)-2-oxo-N-[4-[(6-piperazin-1-yl-1,7-naphthyridin-4-yl)oxy]phenyl]pyridine-3-carboxamide] | 56 |  |  |  |
| 74.3 | 8 | CN1CCC(NC(=O)c2cc3c(Oc4ccc(NC(=O)c5cccn(-c6ccccc6)c5=O)cc4F)ccnc3cn2)CC1 [Example 33, 4-[2-fluoro-4-[(2-oxo-1-phenyl-pyridine-3-carbonyl)amino]phenoxy]-N-(1-methyl-4-piperidyl)-1,7-naphthyridine-6-carboxamide] | 58 |  |  |  |
| 45.4 | 8 | CC(C)n1cc(C(=O)Nc2ccc(Oc3ccnc4cnc(N5CCNCC5)cc34)cc2)c(=O)n(-c2ccc(F)cn2)c1=O [Example 12.4, 3-(5-fluoro-2-pyridyl)-1-isopropyl-2,4-dioxo-N-[4-[(6-piperazin-1-yl-1,7-naphthyridin-4-yl)oxy]phenyl]pyrimidine-5-carboxamide] | 100 |  |  |  |
| 68.1 | 20 | O=C(Nc1ccc(Oc2ccnc3cnc(N4CCNCC4)cc23)cc1)c1cn(C2CC2)c(=O)n(-c2ccc(F)cc2)c1=O [Example 36, 1-cyclopropyl-3-(4-fluorophenyl)-2,4-dioxo-N-[4-[(6-piperazin-1-yl-1,7-naphthyridin-4-yl)oxy]phenyl]pyrimidine-5-carboxamide] | 160 |  |  |  |
| 133 | 22 | CN1CCC(NC(=O)c2cc3c(Oc4ccc(NC(=O)c5cn(C6CC6)c(=O)n(-c6ccc(F)cc6)c5=O)cc4)ccnc3cn2)CC1 [Example 15, 4-[4-[[1-Cyclopropyl-3-(4-fluorophenyl)-2,4-dioxo-pyrimidine-5-carbonyl]amino]phenoxy]-N-(1-methyl-4-piperidyl)-1,7-naphthyridine-6-carboxamide] | 159 |  |  |  |
| 26.3 | 55 | CN1CCC(NC(=O)c2cc3c(Nc4ccc(NC(=O)c5cccn(-c6ccccc6)c5=O)cc4)ccnc3cn2)CC1 [Example 3, N-(1-methyl-4-piperidyl)-4-[4-[(2-oxo-1-phenyl-pyridine-3-carbonyl)amino]anilino]-1,7-naphthyridine-6-carboxamide] | 314 |  |  |  |
| 244 | 56 | CC(C)n1cc(C(=O)Nc2ccc(Oc3ccnc4cnc(N5CCNCC5)cc34)cc2)c(=O)n(-c2ccccn2)c1=O [Example 12.3, 1-isopropyl-2,4-dioxo-N-[4-[(6-piperazin-1-yl-1,7-naphthyridin-4-yl)oxy]phenyl]-3-(2-pyridyl)pyrimidine-5-carboxamide] | 431 |  |  |  |
| 12.4 | 4 | Cn1cc(C(=O)Nc2ccc(Oc3ccnc4cnc(N5CCNCC5)cc34)cc2)c(=O)c(-c2ccc(F)cc2)c1 [Example 13.1, 5-(4-fluorophenyl)-1-methyl-4-oxo-N-[4-[(6-piperazin-1-yl-1,7-naphthyridin-4-yl)oxy]phenyl]pyridine-3-carboxamide] | 50 |  |  |  |
| 30.5 | 15 | CC(C)n1cc(C(=O)Nc2ccc(Oc3ccnc4cnc(C(=O)NC5CCN(C)CC5)cc34)cn2)c(=O)n(-c2ccc(F)cc2)c1=O [Example 27.5, 4-[[6-[[3-(4-fluorophenyl)-1-isopropyl-2,4-dioxo-pyrimidine-5-carbonyl]amino]-3-pyridyl]oxy]-N-(1-methyl-4-piperidyl)-1,7-naphthyridine-6-carboxamide] | 9 |  |  |  |
|  |  | Cc1cc(NC(=O)c2cccn(-c3ccccc3)c2=O)ccc1Oc1ccnc2cnc(N3CCNCC3)cc12 [Example 30, N-[3-methyl-4-[(6-piperazin-1-yl-1,7-naphthyridin-4-yl)oxy]phenyl]-2-oxo-1-phenyl-pyridine-3-carboxamide] |  | 466 | 244 | 13 |
| 8.3 | 2 | CC(C)n1cc(C(=O)Nc2ccc(Oc3ccnc4cnc(C(=O)NC5CCN(C)CC5)cc34)cc2)c(=O)c(-c2ccc(F)cc2)c1 [Example 37.1, 4-[4-[[5-(4-fluorophenyl)-1-isopropyl-4-oxo-pyridine-3-carbonyl]amino]phenoxy]-N-(1-methyl-4-piperidyl)-1,7-naphthyridine-6-carboxamide] | 8 |  |  |  |
